Reference: patent US4207316A, “Novel 17-substituted 11 β-hydroxy steroids of the pregnane series, their manufacture, preparation and use” (Schering Aktiengesellschaft, priority 1978, dated 1980)
Where two headings read alike, the source gives them in different places.

Experiments:
[1] = tested on: paw edema (Mycobacterium butyricum suspension); assay: adjuvant edema test (systemic effectiveness); type: in vivo, SPF rats; conditions: for ED50: Mycobacterium
Method: The systemic effectiveness of the compounds can be determined with the aid of the adjuvant edema test as follows:
SPF rats weighing 130-150 g. are injected in the right hind paw, for producing a center of inflammation, with 0.1 ml. of a 0.5% Mycobacterium butyricum suspension (obtainable from the U.S. company Difco). Prior to injection, the paw volume of the rats is measured. Twenty-four hours after injection, the paw volume is measured once again to determine the extent of the edema. Thereafter, varying amounts of the test compound--dissolved in a mixture of 29% benzyl benzoate and 71% castor oil--are administered orally or subcutaneously to the rats. After another 24 hours, the paw volume is again determined.
The control animals are treated in the same way, except that they are injected with a benzyl benzoate-castor oil mixture free of test compound.
From the paw volumes determined, the amount of test compound required for attaining a 50% reduction in volume of the experimentally produced paw edema is calculated in the usual way.
The following tables indicate the thus-obtained test results, wherein in each case the compounds of this invention are compared with the conventional corticoids contained in commercially available preparations which are most analogous in structure.

[2] = tested on: erythema of stripped skin (vasoconstriction); assay: vasoconstriction test (topical efficacy), difference in degree of efficacy vs diflucortolone 21-valerate (DFV); type: in vivo, healthy test persons (human); conditions: 0.1 p.p.m. active agent, positive = more favorable than DFV
Method: The topical efficacy can be determined as follows using the vasoconstriction test.
The test was conducted on respectively eight healthy test persons of both sexes, who had not received any local corti costeroid treatment within the preceding two weeks. After the stratum corneum on the test persons' backs was removed down to the stratum lucidum (20-40 times application and tearing off of an adhesive film), respectively 0.1 g. of the preparations was applied to areas of a size of 4 cm^2 without protective dressing. To avoid the application of the identical preparation to identical skin areas, the application is done in a rotating fashion. The vasoconstriction is evaluated visually after 4 and 8 hours by the investigator in accordance with the following grades of effectiveness: 1=absolute fading; 2=minor residual erythema; 3=medium-grade erythema, reddening intensity in the central zone of stripped, untreated and undamaged skin; 4=erythema with minor fading; 5=no fading, or intensification of erythema.
The individual evaluations were averaged.
In each test series, diflucortolone 21-valerate (=6α,9α-difluoro-11β-hydroxy-16α-methyl-21-valeryloxy-1,4-pregnadiene-3,20-dione=DFV) is utilized as the reference compound.
The difference Δ of the average degrees of efficacy of DFV and of the test compound determined in the individual series of investigations is calculated in each case. Positive deviations Δ show a more favorable evaluation: negative deviations show a more unfavorable evaluation of the test compound as compared to DFV.
The tables set forth below list the observed test results obtained when treating the test persons with a preparation containing 0.1 p.p.m. of active agent.

[3] = rats, oral, 24 h after administration
[4] = rats, subcutaneous, 24 h after administration
[5] = rats, oral, 24 h after administration, read-out: Adjuvant Edema Test ED50 p.o. (50% reduction in volume of paw edema)
[6] = sc, rats, subcutaneous, 24 h after administration, read-out: Adjuvant Edema Test ED50 s.c. (50% reduction in volume of paw edema)

Row | Compound | Vasoconstriction Test Δ After 8 h. (difference of average degrees of efficacy of DFV and test compound) [2] | Adjuvant Edema Test ED50 s.c. (50% reduction in volume of paw edema) [1, 4] | ED50 [1, 6] | also measured
1 | 21-acetoxy-17α-methoxymethoxy-4-pregnene-3,11,20-trione [Example 24] |  |  |  | Adjuvant Edema Test ED50 s.c. (50% reduction in volume of paw edema) ([1]; rats, subcutaneous, 24 h after administration, 1440 min): 3.5 mg./kg. Animal; Adjuvant Edema Test ED50 s.c. (50% reduction in volume of paw edema) ([1]; rats, subcutaneous, 24 h after administration, listed as 25, 1440 min): 4.0 mg./kg. Animal
2 | 6α-Fluoro-11β,21-dihydroxy-17α-methoxymethoxy-4-pregnene-3,20-dione [No. 25] | +1.3 |  |  | Adjuvant Edema Test ED50 p.o. (50% reduction in volume of paw edema) [1, 3]: about 8 mg./kg. Animal; Vasoconstriction Test Δ After 4 h. (difference of average degrees of efficacy of DFV and test compound) [2]: +1.0
3 | 11β-hydroxy-17α-methoxymethoxy-21-trimethylacetoxy-4-pregnene-3,20-dione [Example 21] |  | 3.0 mg./kg. Animal |  | 
4 | 21-butyryloxy-11β-hydroxy-17α-methoxymethoxy-4-pregnene-3,20-dione [Example 20] |  | 2.0 mg./kg. Animal |  | 
5 | COCO[C@]1(C(=O)CO)CC[C@H]2[C@@H]3CCC4=CC(=O)C=C[C@]4(C)[C@H]3[C@@H](O)C[C@@]21C [compound 9] |  |  |  | ED50 [1, 5]: 9.8 mg/kg
6 | 11β,21-dihydroxy-17α-methoxymethoxy-16β-methyl-4-pregnene- 3,20-dione [Example 17] |  | 2.1 mg./kg. Animal |  | 
7 | CC(C)OCO[C@]1(C(=O)CO)CC[C@H]2[C@@H]3CCC4=CC(=O)CC[C@]4(C)[C@H]3[C@@H](O)C[C@@]21C [compound 5] |  |  | > 30 mg/kg | Adjuvant Edema Test, percentage in parentheses beside ED50 s.c. bound ([1]; rats, subcutaneous, at 30 mg./kg.): 42%
8 | CCOCO[C@]1(C(=O)CO)CC[C@H]2[C@@H]3CCC4=CC(=O)CC[C@]4(C)[C@H]3[C@@H](O)C[C@@]21C [compound 3] |  |  | 14.5 mg/kg | 
9 | CCCOCO[C@]1(C(=O)CO)CC[C@H]2[C@@H]3CCC4=CC(=O)CC[C@]4(C)[C@H]3[C@@H](O)C[C@@]21C [compound 4] |  |  | ~10 mg/kg | 
10 | 21-Acetoxy-9α-chloro-11β-hydroxy-17α-methoxymethoxy-4-pregnene-3,20-dione [No. 14] |  |  |  | Adjuvant Edema Test ED50 p.o. (50% reduction in volume of paw edema) [1, 3]: 22 mg./kg. Animal; Vasoconstriction Test Δ After 4 h. (difference of average degrees of efficacy of DFV and test compound) ([2]; listed as 26): -0.8; Vasoconstriction Test Δ After 4 h. (difference of average degrees of efficacy of DFV and test compound) ([2]; listed as 27): +0.6; Vasoconstriction Test Δ After 8 h. (difference of average degrees of efficacy of DFV and test compound) ([2]; listed as 26): -0.9; Vasoconstriction Test Δ After 8 h. (difference of average degrees of efficacy of DFV and test compound) ([2]; listed as 27): +0.6
11 | COCO[C@]1(C(=O)CO)CC[C@H]2[C@@H]3CCC4=CC(=O)CC[C@]4(C)[C@H]3[C@@H](O)C[C@@]21C [compound 2] |  |  | 13 mg/kg | ED50 [1, 5]: 67 mg/kg
12 | 11β-hydroxy-17α-methoxymethoxy-21-propionyloxy-4-pregnene-3,20- dione [Example 19] | +0.5 | 1.9 mg./kg. Animal |  | Vasoconstriction Test Δ After 4 h. (difference of average degrees of efficacy of DFV and test compound) [2]: +0.5
13 | CCCCOCO[C@]1(C(=O)CO)CC[C@H]2[C@@H]3CCC4=CC(=O)CC[C@]4(C)[C@H]3[C@@H](O)C[C@@]21C [compound 6] |  |  | 20 mg/kg | 
14 | CCCC(=O)O[C@]1(C(=O)CO)CC[C@H]2[C@@H]3CCC4=CC(=O)CC[C@]4(C)[C@H]3[C@@H](O)C[C@@]21C [compound 1] |  |  | 13 mg/kg | ED50 [1, 5]: 54 mg/kg
15 | 11β,21-dihydroxy-17α-(1'-methoxyethoxy)-6α-methyl-1,4-pregnadiene-3,20-dione [Example 12] |  | about 3 mg./kg. Animal |  | 
16 | C[C@]12C=CC(=O)C=C1CC[C@@H]1[C@@H]2[C@@H](O)C[C@@]2(C)[C@H]1CC[C@]2(O)C(=O)CO [compound 8] |  |  |  | ED50 ([1]; in Rattus norvegicus, po, 24 h, read-out: Adjuvant Edema Test ED50 p.o. (50% reduction in volume of paw edema)): 8.6 mg/kg; ED50 ([1]; in Rattus norvegicus, sc, 24 h, read-out: Adjuvant Edema Test ED50 s.c. (50% reduction in volume of paw edema)): 2.6 mg/kg
17 | 11β,21-Dihydroxy-17α-methoxymethoxy-1,4-pregnadiene-3,20-dione [No. 9] | +0.4 | about 3 mg./kg. Animal |  | 
18 | 11β,21-Dihydroxy-17α-propoxymethoxy-4-pregnene-3,20-dione [No. 4] | +0.7 | 3.2 mg./kg. Animal |  | Vasoconstriction Test Δ After 4 h. (difference of average degrees of efficacy of DFV and test compound) [2]: +0.4
19 | 21-Acetoxy-11β-hydroxy-17α-methoxymethoxy-1,4-pregnadiene-3,20-dione [No. 10] | +1.0 | 3.0 mg./kg. Animal |  | Vasoconstriction Test Δ After 4 h. (difference of average degrees of efficacy of DFV and test compound) [2]: +0.5
20 | 17α-Butoxymethoxy-11β,21-dihydroxy-4-pregnene-3,20-dione [No. 6] | +1.0 | about 1 mg./kg. Animal |  | Vasoconstriction Test Δ After 4 h. (difference of average degrees of efficacy of DFV and test compound) [2]: +0.9
21 | 21-acetoxy-11β-hydroxy-17α-methoxymethoxy-4-pregnene-3,20-dione [Example 18] |  | 0.13 mg./kg. Animal |  | 
22 | 17α-Ethoxymethoxy-11β,21-dihydroxy-4-pregnene-3,20-dione [No. 3] | 0.0 | 3.0 mg./kg. Animal |  | Adjuvant Edema Test ED50 p.o. (50% reduction in volume of paw edema) [1, 3]: 22 mg./kg. Animal; Vasoconstriction Test Δ After 4 h. (difference of average degrees of efficacy of DFV and test compound) [2]: -0.3
23 | C[C@]12CCC(=O)C=C1CC[C@@H]1[C@@H]2[C@@H](O)C[C@@]2(C)[C@H]1CC[C@]2(OC1CCCCO1)C(=O)CO (stereo partly drawn) [compound 7] |  |  | 12 mg/kg | 
24 | COCO[C@]1(C(=O)COC(C)=O)CC[C@H]2[C@@H]3CCC4=CC(=O)C=C[C@]4(C)[C@H]3[C@@H](O)C[C@@]21C [compound 10] |  |  | > 3 mg/kg | Adjuvant Edema Test, percentage in parentheses beside ED50 s.c. bound ([1]; rats, subcutaneous, at 3 mg./kg.): 25%
25 | 21-Butyryloxy-11β-hydroxy-17α-methoxymethoxy-1,4-pregnadiene-3,20-dione [No. 12] | +0.2 | about 1 mg./kg. Animal |  | Vasoconstriction Test Δ After 4 h. (difference of average degrees of efficacy of DFV and test compound) [2]: +0.5
